Laboratory results published in article PMC8671953 (Nanotheranostics, 2022).
Blank lines part the entries; values can stand above or below the compound they belong to.

How the values were obtained:
[1] = system: EAE mice; conditions: cited from earlier work
[2] = system: GCPII; design: method as in PMID 23169655, PMID 26826008; conditions: ref [8], [9]; cited from earlier work
[3] = cited from earlier work
[4] = target: human recombinant GCPII enzyme (Homo sapiens, UniProt Q04609); assay: GCPII activity assay (IC50), NAA-[3H]-G hydrolysis; assay type: biochemical; conditions: human recombinant GCPII 40 pM, NAA-[3H]-G 30 nM, 37 °C, 20 min
Sequence of human recombinant GCPII enzyme (Q04609 whole entry): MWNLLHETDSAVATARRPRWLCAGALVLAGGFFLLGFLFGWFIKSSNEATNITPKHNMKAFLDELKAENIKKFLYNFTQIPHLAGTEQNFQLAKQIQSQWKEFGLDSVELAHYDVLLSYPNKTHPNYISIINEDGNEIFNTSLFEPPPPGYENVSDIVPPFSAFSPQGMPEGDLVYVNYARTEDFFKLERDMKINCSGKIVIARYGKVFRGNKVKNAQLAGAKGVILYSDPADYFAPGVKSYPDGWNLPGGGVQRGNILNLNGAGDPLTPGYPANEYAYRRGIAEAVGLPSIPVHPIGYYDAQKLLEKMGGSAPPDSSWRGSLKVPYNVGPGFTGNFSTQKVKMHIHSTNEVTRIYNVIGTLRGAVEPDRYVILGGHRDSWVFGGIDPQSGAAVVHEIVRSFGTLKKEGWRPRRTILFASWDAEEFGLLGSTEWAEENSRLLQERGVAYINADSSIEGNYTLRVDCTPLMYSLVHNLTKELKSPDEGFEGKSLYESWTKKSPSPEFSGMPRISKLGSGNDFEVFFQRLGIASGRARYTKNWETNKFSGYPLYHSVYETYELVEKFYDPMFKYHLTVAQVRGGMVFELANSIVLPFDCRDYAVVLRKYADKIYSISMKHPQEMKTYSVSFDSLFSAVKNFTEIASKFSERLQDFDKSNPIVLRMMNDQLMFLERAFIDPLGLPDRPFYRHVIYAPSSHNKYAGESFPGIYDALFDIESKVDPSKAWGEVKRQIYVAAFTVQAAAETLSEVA

SMILES: O=C(O)CCC(CP(=O)(O)O)C(=O)O (stereo not shown) [2-PMPA, 2-(phosphonomethyl)-pentanedioic acid]
effect on EAE disease score ([1]; free 2-PMPA treatment, ref [8], [9]): no effect on EAE disease score
clearance from circulation ([3]; free drug, ref [9]): cleared from circulation within six hours
brain penetration (AUCbrain/AUCplasma) ([3]; ref [37]): < 0.02
oral bioavailability (F) ([3]; ref [37]): < 2%

IC50 [4]: 1.6 nM
SMILES: [N-]=[N+]=NCCOCCOCCOCCOCCOCCOCCOCCOCCOCCOCCOC(=O)CCC(CP(=O)(O)O)C(=O)O (stereo not shown) [2-PMPA-PEG-azide]
